The test system of series [1] is T-47D. In words: Caspase cascade activation (caspase activity ratio and potency), fluorogenic N-(Ac-DEVD)-N'-ethoxycarbonyl-R110 substrate. The series is classed as cell-based, Human. The protocol:
Human breast cancer cell lines T-47D and DLD-1 were grown according to media component mixtures designated by American Type Culture Collection+10% FCS (Invitrogen Corporation), in a 5% CO2−95% humidity incubator at 37° C. T-47D and DLD-1 cells were maintained at a cell density between 50 and 80% confluency at a cell density of 0.1 to 0.6×10^6 cells/mL. Cells were harvested at 600×g and resuspended at 0.65×10^6 cells/mL into appropriate media+10% FCS. An aliquot of 22.5 μL of cells was added to a well of a 384-well microtiter plate containing 2.5 μL of a 10% DMSO in RPMI-1640 media solution containing 0.16 to 100 μM of (2-chloro-quinazolin-4-yl)-(4-methoxy-phenyl)-methyl-amine or other test compound (0.016 to 10 μM final). An aliquot of 22.5 μL of cells was added to a well of a 384-well microtiter plate containing 2.5 μL of a 10% DMSO in RPMI-1640 media solution without test compound as the control sample. […] […] The samples were mixed by agitation and incubated at room temperature. Using a fluorescent plate reader (Model SPECTRAfluor Plus, Tecan), an initial reading (T=0) was made approximately 1-2 min after addition of the substrate solution, employing excitation at 485 nm and emission at 530 nm, to determine the background fluorescence of the control sample. After the 3 h incubation, the samples were read for fluorescence as above (T=3 h).
The Relative Fluorescence Unit values (RFU) were used to calculate the sample readings as follows: RFU(T=3h)−Control RFU(T=0)=Net RFU(T=3h)
The activity of caspase cascade activation was determined by the ratio of the net RFU value for (2-chloro-quinazolin-4-yl)-(4-methoxy-phenyl)-methyl-amine or other test compounds to that of control samples. The EC50 (nM) was determined by a sigmoidal dose-response calculation (Prism 3.0, GraphPad Software Inc.).

Series [2] in a line: Determination of brain/plasma AUC ratio after tail vein injection. The format is in vivo. Particulars: mouse, intravenous, 0.0875 mg/mouse, mice, 0.10 mL of 0.875 mg/mL, AUC0-∞ from median plasma and brain concentrations. Here is the method:
For each test compound, forty five mice were injected via the tail vein with 0.10 mL of a 0.875 mg/mL solution of test compound dissolved in a formulation of 5% Cremophor, 5% Ethanol, and 90% D5W, or a formulation variation thereof. Five mice at each collection time point of approximately 0.05, 0.25, 0.50, 1.00, 2.00, 4.00, 8.00, 12.0 and 24.0 hours post dose were euthanized by halothane inhalation. Approximately 0.30 to 1.00 mL of blood from each animal was collected via cardiac puncture into tubes containing EDTA. Immediately after exsanguination, the whole brain from each animal was removed. The plasma and whole brain samples were frozen (˜20° C.) separately until analysis. Plasma and brain samples were allowed to thaw at room temperature on the day of sample analysis. Prior to homogenization, the brains were weighed and three volumes of sterile water were added. Plasma and homogenized brain samples were extracted using a protein precipitation and filtration method. Briefly, 0.20 mL acetonitrile was added to 0.10 mL of sample in a Varian Captiva 20 μm filtration plate. A vacuum was applied to the plate and filtrates were collected. Filtrates were injected onto LC-MS/MS ABI2000 QTrap LC-MS/MS equipped with a reverse phase liquid chromatography inlet. Peak areas of the m/z product ions of the test compounds were measured against the peak are of the m/z internal standard production. The range of quantitation for the assay was between 1.00 and 1000 ng/mL for both analytes.
Pharmacokinetic parameters (PK) for the test compounds were estimated on median plasma and brain concentrations using non-compartmental analysis in WinNonlin (Pharsight Corp., Mountain View, Calif.). The validation of this software program is reported in MPI-REP-PA-03.00. All values below the quantitation limit (BQL) of 1.00 ng/mL were excluded from PK analysis. The areas under the concentration-time curve (AUC0-∞) were calculated using a linear/log trapezoidal method.

SMILES strings stand for the structures. Where a name gives a salt, the structure may show the parent alone.

What is called Kp is tissue or fluid exposure divided by exposure in the circulation. With `COc1ccc(N(C)c2nc(Cl)nc3ccccc23)cc1` [Example 1, (2-Chloro-quinazolin-4-yl)-(4-methoxy-phenyl)-methyl-amine], the “Caspase activity Ratio (net RFU of test compound to control)” value (“Caspase activity Ratio” for short) in series [1] (T-47D (24 hr)) was 8.7. Moreover, the Kp in series [2] was 30.

On to `CNc1nc(N(C)c2ccc(OC)nc2)c2ccccc2n1` [Example 40, (2-Methylamino-quinazolin-4-yl)-(6-methoxy-pyridin-3-yl)-methyl-amine], for which the “Caspase activity Ratio” value in series [1] (T-47D (24 hr)) worked out at 10. For the same compound, the Kp in series [2] turned out to be 10.

`COc1ccc(N(C)c2nc(OC)nc3ccccc23)cc1` [Example 11, (2-methoxy-quinazolin-4-yl)-(4-methoxyphenyl)-methylamine]: in series [2], the Kp is 6.14.

Consider `CNc1nc(N(C)c2ccc(OC)cc2)c2ccccc2n1` [Example 39, (2-Methylamino-quinazolin-4-yl)-(4-methoxy-phenyl)-methyl-amine], for which the “Caspase activity Ratio” value in series [1] (T-47D (24 hr)) is 8.2. Also, the Kp in series [2] stood at 6.44.

`CNc1ccc(N(C)c2nc(C)nc3ccccc23)cc1` [Example 43, (2-Methyl-quinazolin-4-yl)-(4-methylamino-phenyl)-methylamine]: in series [1] (T-47D (24 hr)), the “Caspase activity Ratio” value turned out to be 3.4. Also, the Kp in series [2] turned out to be 14.1.

With `COc1ccc(N(C)c2nc(N(C)C(C)=O)nc3ccccc23)cc1` [Example 51, (4-Methoxy-phenyl)-(2-N-methylacetamido-quinazolin-4-yl)-methylamine], the “Caspase activity Ratio” value in series [1] (T-47D (24 hr)) is reported as 4.0. For the same compound, the Kp in series [2] was 23.3.

As to `COc1ccc(N(C)c2nc(C)nc3ccccc23)cn1` [Example 33, (2-Methyl-quinazolin-4-yl)-(6-methoxy-pyridin-3-yl)-methyl-amine], the Kp in series [2] is 5.82.

Regarding `COc1ccc(N(C)c2nc(C)nc3ccccc23)cc1` [Example 21, (4-Methoxy-phenyl)-methyl-(2-methyl-quinazolin-4-yl)-amine hydrochloride], the results for the “Caspase activity Ratio” value in series [1] (T-47D (24 hr)) and in series [1] (T-47D (48 hr)) were 9.0 and 7.4, respectively. Moreover, the Kp in series [2] came out at 19.7.

Take `Cc1nc(N(C)c2ccc(N(C)C)cc2)c2ccccc2n1` [Example 35, (4-Dimethylamino-phenyl)-(2-methyl-quinazolin-4-yl)-methyl-amine]: the “Caspase activity Ratio” value in series [1] (T-47D (24 hr)) was 8.5. For the same compound, the Kp in series [2] was 16.1.

On to `COc1ccc(N(C)c2ccnc3ccccc23)cc1` [Example 17, (4-Methoxy-phenyl)-methyl-(quinolin-4-yl)-amine], for which the “Caspase activity Ratio” value in series [1] (T-47D (24 hr)) is reported as 7.2; in series [1] (T-47D (48 hr)), 12.5. The Kp in series [2] was 9.16.

For the origin of these results see US8258145B2, “Method of treating brain cancer” (Myrexis, Inc., priority 2005, dated 2012).
